Measurements as given in patent US11874281B2, “Assays for detecting modified compounds” (Enzo Life Sciences, Inc., priority 2010, dated 2024).

Target: human sphingosine kinase 1 (hSK1) (Homo sapiens, UniProt Q9NYA1)
Assay: sphingosine kinase 1 assay with fluoresceinated sphingosine, barium acetate/ethanol precipitation of fluoresceinated S1P, fluorescence readout
Format: biochemical
Conditions: 100 μM inhibitor; 4 μM sphingosine fluoresceine; 500 μM ATP; 1 h at 37° C.
From the text: Sphingosine is phosphorylated at the non-polar end by the enzymes sphingosine kinase 1 and sphingosine kinase 2, to form sphingosine-1-phosphate (S1P). S1P is an important signaling molecule, and serves in particular as a major regulator of vascular and immune systems. See, e.g., Lloyd-Evans et al., Nat. Med. 14:1247-1255 (2008); Ryu et al., EMBO J. 25:5840-5851 (2006); Maceyka et al., J. Lipid Res. 50:S272-S276 (2009); Peterson et al., Proc. Natl. Acad. Sci. USA 105:20764-20769; and U.S. Pat. No. 6,730,480. Thus, the detection of S1P and the sphingosine kinases is important for the understanding of the various systems that S1P influences. Current methods for separating sphingosine from S1P generally use chromatographic, electrophoretic or spectrometric methods. See, e.g., Bandhuvula et al., Biochem. Biophys. Res. Commun. 380:366-370 (2009); Lee et al., Anal. Chem. 80:1620-1627 (2008); Jin et al., Arch. Pharm. […]
The S1P formed by the enzyme was then precipitated in the reaction mix by the addition of 5 μl of 1 M barium acetate+300 μL of 100% ethanol, followed by 30 min incubation on ice. […] The eluted fluoresceinated S1P was quantified by measuring intensity of fluorescence. Preliminary studies established that the two wash steps were sufficient to remove essentially the entire quantity of unprecipitated sphingosine fluorescein. […]

human sphingosine kinase 1 (hSK1), sequence (Q9NYA1 whole entry): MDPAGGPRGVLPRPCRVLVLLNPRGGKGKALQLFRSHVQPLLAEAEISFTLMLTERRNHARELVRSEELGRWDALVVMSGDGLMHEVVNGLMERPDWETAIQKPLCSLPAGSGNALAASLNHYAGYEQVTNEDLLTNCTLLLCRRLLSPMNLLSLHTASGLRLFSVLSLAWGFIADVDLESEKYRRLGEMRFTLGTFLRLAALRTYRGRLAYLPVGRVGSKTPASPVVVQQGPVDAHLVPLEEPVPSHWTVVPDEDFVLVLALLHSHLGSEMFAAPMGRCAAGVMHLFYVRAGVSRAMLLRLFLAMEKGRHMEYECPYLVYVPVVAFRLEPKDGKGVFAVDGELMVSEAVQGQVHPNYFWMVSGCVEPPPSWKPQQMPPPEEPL

| SMILES | inhibition of hSK1 (precipitation of the fluoresceinated product, FIG. 6) |
| --- | --- |
| CCCCCCCCCCCCC/C=C/[C@@H](O)[C@@H](N)CO [D/L sphingosine] | caused less precipitation of the fluoresceinated product |
| CCCCCCCCCCCCC/C=C/[C@@H](O)[C@H](CO)N(C)C [DMS, dimethylsphingosine] | caused less precipitation of the fluoresceinated product |
